From PubChem BioAssay AID330 (DTP/NCI, 2004)
Values joined by “and” are separate entries in the source; they are usually repeats but may differ in a detail not shown here. Equal entries are not always repeated. Toxic doses and inconclusive results are not listed.

Test system: P388 leukemia ip, CD2F1 mice, survival T/C
Experiment: NCI In Vivo Anticancer Drug Screen. Data for tumor model P388 Leukemia (intraperitoneal) in CD2F1 (CDF1) mice
Settings: endpoint: median survival time, higher = longer survival
Outline: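 Mice carrying the transplanted tumor received test compound or vehicle. Survival was recorded in each group, and the value is the treated-group measurement divided by that of the vehicle-treated control group.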

[1] = dose: 60.0 mg/kg/injection, schedule: Q01DX005 (ip), vehicle: Klucel (hydroxypropylcellulose) (HPC)
[2] = dose: 120.0 mg/kg/injection, schedule: Q01DX005 (ip), vehicle: Klucel (hydroxypropylcellulose) (HPC)
[3] = dose: 240.0 mg/kg/injection, schedule: Q01DX005 (ip), vehicle: Klucel (hydroxypropylcellulose) (HPC)
[4] = dose: 50.0 mg/kg/injection, schedule: Q01DX009 (ip), vehicle: saline

Question: What does the source list for `O=c1cc(CBr)c2ccccc2[nH]1`?
Answer: T/C (dose: 6.25 mg/kg/injection, schedule: Q01DX009 (ip), vehicle: saline with Tween-80): 95 % of control; T/C (dose: 12.5 mg/kg/injection, schedule: Q01DX009 (ip), vehicle: saline with Tween-80): 95 % of control; T/C (dose: 25.0 mg/kg/injection, schedule: Q01DX009 (ip), vehicle: saline with Tween-80): 86 % of control

Question: With `COC(=O)c1ccc(C(=O)OC)c2nc3cc(C)c(C)cc3nc12` as the compound, how does the T/C [1] read?
Answer: Its T/C is 96 % of control.

Question: What about the T/C [2] of the same compound?
Answer: The T/C was 98 % of control.

Question: For `CC1=NOCC(=O)N1`, which T/C (dose: 50.0 mg/kg/injection, schedule: Q01DX005 (ip), vehicle: distilled water + alcohol) is on record?
Answer: Its T/C is 106 % of control.

Question: What about the T/C (dose: 100.0 mg/kg/injection, schedule: Q01DX005 (ip), vehicle: distilled water + alcohol) of the same compound?
Answer: The T/C was 102 % of control.

Question: What about the T/C (dose: 200.0 mg/kg/injection, schedule: Q01DX005 (ip), vehicle: distilled water + alcohol) of the same compound?
Answer: The T/C was 105 % of control.

Question: Which T/C (dose: 3.7 mg/kg/injection, schedule: Q01DX009 (ip), vehicle: saline with Tween-80) does the source give for `CCOC(=O)CNC(=O)/C=C\C(=O)NC(=O)OCC` here?
Answer: Its T/C is 110 % of control.

Question: What about the T/C (dose: 7.5 mg/kg/injection, schedule: Q01DX009 (ip), vehicle: saline with Tween-80) of the same compound?
Answer: The T/C was 107 % of control.

Question: Which T/C (dose: 3.13 mg/kg/injection, schedule: Q01DX009 (ip), vehicle: saline with Tween-80) does the source give for `Nc1ccc(/C=C\c2nccc3ccccc23)cc1` here?
Answer: The T/C was 102 % of control.

Question: What does the source list for `C=C1C(=O)OC2C=CCCC12` (configuration not stated)?
Answer: T/C (dose: 12.5 mg/kg/injection, schedule: Q01DX009 (ip), vehicle: water): 101 % of control; T/C (dose: 25.0 mg/kg/injection, schedule: Q01DX009 (ip), vehicle: water): 103 % of control; T/C (dose: 50.0 mg/kg/injection, schedule: Q01DX009 (ip), vehicle: water): 106 % of control; T/C (dose: 100.0 mg/kg/injection, schedule: Q01DX009 (ip), vehicle: water): 118 % of control

Question: Which results are given for `NC(=O)C(C(N)=O)=C1C(=O)c2ccccc2C1=O`?
Answer: T/C [1]: 95 % of control; T/C [2]: 100 % of control; T/C [3]: 99 % of control

Question: For `Nc1nc(N)nc(CCC(Cl)(Cl)Cl)n1`, which T/C (dose: 12.5 mg/kg/injection, schedule: Q01DX009 (ip), vehicle: distilled water + Tween-80) is on record?
Answer: Its T/C is 100 % of control.

Question: And the T/C (dose: 25.0 mg/kg/injection, schedule: Q01DX009 (ip), vehicle: distilled water + Tween-80)?
Answer: The T/C was 100 % of control.

Question: And the T/C (dose: 50.0 mg/kg/injection, schedule: Q01DX009 (ip), vehicle: distilled water + Tween-80)?
Answer: Its T/C is 95 % of control.

Question: And the T/C (dose: 100.0 mg/kg/injection, schedule: Q01DX009 (ip), vehicle: distilled water + Tween-80)?
Answer: Its T/C is 95 % of control.

Question: What about the T/C (dose: 200.0 mg/kg/injection, schedule: Q01DX009 (ip), vehicle: distilled water + Tween-80) of the same compound?
Answer: The T/C was 100 % of control.

Question: Which T/C [1] does the source give for `COC(=O)N1CCCc2ccc3c(OC)c(OC)cc(c3c2)CC1` here?
Answer: Its T/C is 100 % of control.

Question: What about the T/C [2] of the same compound?
Answer: Its T/C is 100 % of control.

Question: And the T/C [3]?
Answer: Its T/C is 88 % of control.

Question: How did the T/C (dose: 33.0 mg/kg/injection, schedule: Q01DX009 (ip), vehicle: saline) turn out when `CCN(CC)Cc1cc(Nc2c3ccccc3nc3cc(Cl)ccc23)ccc1O` was run?
Answer: The T/C was 100 % of control.

Question: And the T/C [4]?
Answer: The T/C was 109 % of control.

Question: What about the T/C (dose: 75.0 mg/kg/injection, schedule: Q01DX009 (ip), vehicle: saline) of the same compound?
Answer: The T/C was 122 % of control.

Question: For `CCNc1ccc(F)cc1[N+](=O)[O-]`, which T/C (dose: 50.0 mg/kg/injection, schedule: Q04DX003 (ip), vehicle: saline with Tween-80) is on record?
Answer: The T/C was 100 % of control.

Question: What about the T/C (dose: 100.0 mg/kg/injection, schedule: Q04DX003 (ip), vehicle: saline with Tween-80) of the same compound?
Answer: The T/C was 100 % of control.

Question: And the T/C (dose: 200.0 mg/kg/injection, schedule: Q04DX003 (ip), vehicle: saline with Tween-80)?
Answer: Its T/C is 86 % of control.

Question: Which results are given for `CSc1ccccc1[As](c1ccccc1)c1ccccc1`?
Answer: T/C (dose: 50.0 mg/kg/injection, schedule: Q01DX009 (ip), vehicle: Klucel (hydroxypropylcellulose) (HPC)): 95 % of control; T/C (dose: 100.0 mg/kg/injection, schedule: Q01DX009 (ip), vehicle: Klucel (hydroxypropylcellulose) (HPC)): 91 % of control; T/C (dose: 200.0 mg/kg/injection, schedule: Q01DX009 (ip), vehicle: Klucel (hydroxypropylcellulose) (HPC)): 97 % of control

Question: Which results are given for `O=c1cccc(O)[nH]1`?
Answer: T/C [4]: 109 % of control and 94 % of control; T/C (dose: 100.0 mg/kg/injection, schedule: Q01DX009 (ip), vehicle: saline): 100 % of control and 93 % of control

Question: How did the T/C (dose: 50.0 mg/kg/injection, schedule: Q01DX005 (ip), vehicle: saline with Tween-80) turn out when `O=C1N(CCO)C2=CCCCC23c2[nH]c4ccccc4c2CCN13` (configuration not stated) was run?
Answer: The T/C was 104 % of control.

Question: What about the T/C (dose: 100.0 mg/kg/injection, schedule: Q01DX005 (ip), vehicle: saline with Tween-80) of the same compound?
Answer: The T/C was 102 % of control.

Question: And the T/C (dose: 200.0 mg/kg/injection, schedule: Q01DX005 (ip), vehicle: saline with Tween-80)?
Answer: The T/C was 102 % of control.

Question: With `Cc1ccc(S(=O)(=O)C23N=NC(C)(C)C2C2CC3C3CN=NC32)cc1` (configuration not stated) as the compound, how does the T/C (dose: 100.0 mg/kg/injection, schedule: Q01DX001 (ip), vehicle: Klucel (hydroxypropylcellulose) (HPC)) read?
Answer: Its T/C is 103 % of control.

Question: What about the T/C (dose: 200.0 mg/kg/injection, schedule: Q01DX001 (ip), vehicle: Klucel (hydroxypropylcellulose) (HPC)) of the same compound?
Answer: The T/C was 109 % of control.

Question: What about the T/C (dose: 400.0 mg/kg/injection, schedule: Q01DX001 (ip), vehicle: Klucel (hydroxypropylcellulose) (HPC)) of the same compound?
Answer: Its T/C is 102 % of control.

Question: Which results are given for `c1ccc2nc3ccccc3nc2c1`?
Answer: T/C (dose: 25.0 mg/kg/injection, schedule: Q01DX005 (ip), vehicle: Klucel (hydroxypropylcellulose) (HPC)): 109 % of control; T/C (dose: 50.0 mg/kg/injection, schedule: Q01DX005 (ip), vehicle: Klucel (hydroxypropylcellulose) (HPC)): 104 % of control; T/C (dose: 100.0 mg/kg/injection, schedule: Q01DX005 (ip), vehicle: Klucel (hydroxypropylcellulose) (HPC)): 104 % of control; T/C (dose: 200.0 mg/kg/injection, schedule: Q01DX005 (ip), vehicle: Klucel (hydroxypropylcellulose) (HPC)): 104 % of control

Question: With `C=C1C(=O)OC2/C=C(\C)C3OC3/C=C(/C(=O)OC)C(OC(C)=O)C(OC(=O)C(C)(O)C(C)OC(C)=O)C12` (configuration not stated) as the compound, how does the T/C (dose: 1.5 mg/kg/injection, schedule: Q01DX009 (ip), vehicle: Klucel (hydroxypropylcellulose) (HPC)) read?
Answer: The T/C was 114 % of control.

Question: What about the T/C (dose: 12.0 mg/kg/injection, schedule: Q01DX009 (ip), vehicle: Klucel (hydroxypropylcellulose) (HPC)) of the same compound?
Answer: The T/C was 106 % of control.

Question: For `Cc1ccc(S(=O)(=O)N2CC3CC=C(Cc4ccnc5ccccc45)CC(C2)C3=O)cc1` (configuration not stated), which T/C (dose: 100.0 mg/kg/injection, schedule: Q04DX003 (ip), vehicle: Klucel (hydroxypropylcellulose) (HPC)) is on record?
Answer: The T/C was 105 % of control.

Question: And the T/C (dose: 200.0 mg/kg/injection, schedule: Q04DX003 (ip), vehicle: Klucel (hydroxypropylcellulose) (HPC))?
Answer: The T/C was 91 % of control.

Question: What about the T/C (dose: 400.0 mg/kg/injection, schedule: Q04DX003 (ip), vehicle: Klucel (hydroxypropylcellulose) (HPC)) of the same compound?
Answer: The T/C was 96 % of control.

Question: Which results are given for `Cc1cc2c(cc1C)NC(c1ccc(C(N)=S)cc1)N2`?
Answer: T/C (dose: 100.0 mg/kg/injection, schedule: Q04DX002 (ip), vehicle: saline with Tween-80): 92 % of control; T/C (dose: 200.0 mg/kg/injection, schedule: Q04DX002 (ip), vehicle: saline with Tween-80): 86 % of control

Question: For `CCc1nc2cc(C)ncn2n1`, which T/C (dose: 100.0 mg/kg/injection, schedule: Q04DX003 (ip), vehicle: saline) is on record?
Answer: The T/C was 100 % of control.

Question: What about the T/C (dose: 200.0 mg/kg/injection, schedule: Q04DX003 (ip), vehicle: saline) of the same compound?
Answer: The T/C was 96 % of control.

Question: And the T/C (dose: 400.0 mg/kg/injection, schedule: Q04DX003 (ip), vehicle: saline)?
Answer: The T/C was 101 % of control.
